From patent publication US5734013A, “Peptides having farnesyl transferase inhibiting properties and strain of genus streptomyces for producing same” (Rhone-Poulenc Rorer S.A., priority 1994, dated 1998)
Starred links: 1 amine or outer side, 2 acyl side, 3 side chain; linkers in the order of their positions; H or OH if unused. Positions of bridges follow the written chain, without caps; N, C: chain ends. Non-standard residues stand in square brackets, D forms with d. Residues, ends and D or L forms follow the SMILES beside them. *: point of attachment. Trp(5-OH) = N[CH](Cc1c[nH]c2ccc(O)cc12)C(=O)O; Propanoyl(3-cHex) = O=C(CCC1CCCCC1)*; Hpg = N[CH](C(=O)O)c1ccc(O)cc1; NMeF = CN[CH](Cc1ccccc1)C(=O)O; X1 = CC1CC1(N[*:1])C(=O)[*:2]; Ac3c = NC1(C(=O)O)CC1

Molecular target: T1, farnesyl transferase (Ftase) (Homo sapiens, UniProt P49354+P49356)
T1 construct: This enzyme was partially purified from human THP1 cells; endogenous in cells; host or cells: human THP1 cells (enzyme partially purified)
Experiment: Scintillation proximity assay (SPA) test for farnesyl transferase inhibition
Format: biochemical
Settings: Ftase partially purified from human THP1 cells; biotinylated B lamin peptide (BLB) 0.1 μM, 3HFPP 0.12 μM; 37° C., 60 minutes
Procedure: The principle of SPA (scintillation proximity assay) technology is applied to assaying the enzymic activity of farnesyl transferase. According to this method, farnesyl transferase inhibitory activity is determined by the quantity of (^3 H)-farnesyl which is transferred from (^3 H)-farnesyl pyrophosphate ((^3 H) FPP) to a biotinylated acceptor substrate.
The acceptor substrate, which is biotinylated, is a peptide of 11 amino acids corresponding to the terminal sequence of B lamin (BLB). The donor substrate, farnesyl pyrophosphate, is labelled with tritrium (^3 HFPP). […] The radio-labelled peptide excites the beads, which then emit light which is quantified in a solid-liquid scintillation counter (Topcount®, Packard).
The SPA reaction is started by adding 40 μl of Ftase (2 μg) to a microtitre plate which contains 20 μl of BLB (0.1 μM), 20 μl of ^3 HFPP (0.12 μM) and 20 μl of assay buffer 50 mM Hepes, pH 7.5, 5 mM MgCl2, 5 mM DTT, 20 mM KCl, 0.01% triton X100 (control) or 20 μl of sample diluted in assay buffer (screening). The plate is incubated at 37° C. for 60 minutes and the reaction is stopped by adding 150 μl of stopping reagent containing the SPA beads. The plate is sealed with an adhesive film, left at ambient temperature for 30 minutes in order to reach equilibrium, and then counted in the Topcount counter. […] The IC50 values of the compounds are calculated by non-linear regression.

IC50 | Structure (SMILES)
626 nM | CC1OC(=O)C2(CC2)NC(=O)C(c2ccc(O)cc2)NC(=O)C(Cc2c[nH]c3ccc(O)cc23)NC(=O)C(CCC(=O)O)NC(=O)C(Cc2ccccc2)N(C)C(=O)C1NC(=O)CCC1CCCCC1 (stereo not drawn) [Peptide 1] ({Propanoyl(3-cHex)}-T[NMeF]E[Trp(5-OH)][Hpg][Ac3c]; ester 1-C; configuration not given here)
538 nM | CC1OC(=O)C2(CC2C)NC(=O)C(c2ccc(O)cc2)NC(=O)C(Cc2c[nH]c3ccc(O)cc23)NC(=O)C(CCC(=O)O)NC(=O)C(Cc2ccccc2)N(C)C(=O)C1NC(=O)CCC1CCCCC1 (stereo not drawn) [Peptide 2] ({Propanoyl(3-cHex)}-T[NMeF]E[Trp(5-OH)][Hpg][X1]; ester 1-C; configuration not given here)
1300 nM | COC(=O)CCC1NC(=O)C(Cc2ccccc2)N(C)C(=O)C(NC(=O)CCC2CCCCC2)C(C)OC(=O)C2(CC2C)NC(=O)C(c2ccc(O)cc2)NC(=O)C(Cc2c[nH]c3ccc(O)cc23)NC1=O (stereo not drawn) [Peptide 3] ({Propanoyl(3-cHex)}-T[NMeF]E(OMe)[Trp(5-OH)][Hpg][X1]; ester 1-C; configuration not given here)
